Experimental data from ChEMBL document CHEMBL1201862, “PubChem BioAssay data set” (2004).
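Where inhibition never reached the appropriate level, the endpoint shown equals the highest concentration tested. Otherwise, values were interpolated linearly from a five-concentration, 48-hour dose response in 96-well plates. The concentration for 50% growth inhibition is given as GI50.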 The source made the active and inactive calls. No stated cut-off is given here; in the data, active = GI50 up to about 1.1 µM and inactive = higher.

Columns and labels:
Assay in all cases: NCI tumour cell line growth inhibition, 48 h
[1] = test system: DLD-1
[2] = test system: DMS-114
[3] = test system: HOP-18
[4] = test system: KM-20L2
[5] = test system: LXFL 529
[6] = test system: RXF 631
[7] = test system: SNB-78
[8] = test system: XF498
[9] = test system: DMS-273

Row | SMILES | GI50 [1] | GI50 [2] | GI50 [3] | GI50 [4] | GI50 [5] | GI50 [6] | GI50 [7] | GI50 [8] | GI50 [9]
1 | CC(=O)c1ccc(NC(=O)COC(=O)c2cccc3c(=O)c4ccccc4[nH]c23)cc1 | 54 µM (inactive) | 34.8 µM (inactive) | > 100 µM (inactive) | > 100 µM (inactive) | 21.9 µM (inactive) | 20.6 µM (inactive) | 31.4 µM (inactive) | 23.1 µM (inactive) | 
2 | CC(C)(C)c1cc(C(=O)O)c(C(c2ccccc2)c2ccccc2C(=O)O)c(C(=O)O)c1 (stereo unspecified) | > 100 µM (inactive) | > 100 µM (inactive) | > 100 µM (inactive) | > 100 µM (inactive) | > 100 µM (inactive) |  | > 100 µM (inactive) | > 100 µM (inactive) | > 100 µM (inactive)
3 | CCOC(=O)c1cc(/C=C/C(C)=C/C(=O)OC)n(C)c1C | 67.8 µM (inactive) |  |  | 74 µM (inactive) | 91.6 µM (inactive) | > 100 µM (inactive) | > 100 µM (inactive) | 93.1 µM (inactive) | > 100 µM (inactive)
4 | CC(C)N(C(=O)C12C3C4C1C1C2C3C41C(O)C(C)(C)C)C(C)C (stereo unspecified) |  | > 50 µM (inactive) |  | > 50 µM (inactive) | > 50 µM (inactive) |  | > 50 µM (inactive) | > 50 µM (inactive) | > 50 µM (inactive)
5 | Clc1ccc(C(c2ccc(Cl)cc2)c2ccccn2)cc1 | 20.8 µM (inactive) | 28.4 µM (inactive) | 24.8 µM (inactive) | 14.4 µM (inactive) | 17.7 µM (inactive) |  | 33.8 µM (inactive) | 18.2 µM (inactive) | 
6 | CN/N=C(\C)c1c(O)cc(C)oc1=O | > 100 µM (inactive) |  | > 100 µM (inactive) | > 100 µM (inactive) | > 100 µM (inactive) | > 100 µM (inactive) |  |  | 
7 | CC(=O)C=C1Nc2ccccc2N1 | > 100 µM (inactive) |  |  | > 100 µM (inactive) | > 100 µM (inactive) | > 100 µM (inactive) | > 100 µM (inactive) | > 100 µM (inactive) | 
8 | COc1cccc(C=O)c1C(=O)c1cc(O)ccc1O | 16.3 µM (inactive) | 11 µM (inactive) | 25.1 µM (inactive) | > 100 µM (inactive) |  |  | > 45.9 µM (inactive) | 44.2 µM (inactive) | > 58.7 µM (inactive)
9 | CCCCCCCCCCCCCP(=O)(OC)OC | 16.1 µM (inactive) | 21.6 µM (inactive) | 18.1 µM (inactive) | 26.8 µM (inactive) | 19.1 µM (inactive) | 17.7 µM (inactive) | 17.5 µM (inactive) | 17.9 µM (inactive) | 19.1 µM (inactive)
10 | Nc1ccc(C(=O)N/C(=C\c2cccc([N+](=O)[O-])c2)c2nc3ccccc3[nH]2)cc1 | 66.8 µM (inactive) | 29.4 µM (inactive) |  | > 87.1 µM (inactive) | 29.4 µM (inactive) |  | 57.3 µM (inactive) | 23.5 µM (inactive) | 55.2 µM (inactive)
11 | OCC1OC(NO)C(O)C(O)C1O (stereo unspecified) | > 100 µM (inactive) |  | > 100 µM (inactive) | > 100 µM (inactive) | > 100 µM (inactive) | > 100 µM (inactive) | > 100 µM (inactive) | > 100 µM (inactive) | > 100 µM (inactive)
12 | CC[N+](CC)(CC)Cc1cc2ccccc2n1C(=O)OC | > 100 µM (inactive) | > 100 µM (inactive) |  | > 100 µM (inactive) | > 100 µM (inactive) |  |  | > 100 µM (inactive) | > 100 µM (inactive)
13 | O=C(O)C(C(=O)C(=O)C(C(=O)O)c1ccc(Cl)cc1)c1ccc(Cl)cc1 (stereo unspecified) | 3.52 µM (inactive) | 2.24 µM (inactive) | 5.32 µM (inactive) | 3.31 µM (inactive) | 2.52 µM (inactive) |  | 3.27 µM (inactive) | 2.43 µM (inactive) | 3.64 µM (inactive)
14 | O=C(/C=C\c1cccc2ccccc12)c1ccc(F)cc1 | 19.1 µM (inactive) | 14.4 µM (inactive) | 14.3 µM (inactive) | 16.6 µM (inactive) | 17.1 µM (inactive) |  | 19.8 µM (inactive) |  | 15.2 µM (inactive)
15 | CN(C(=O)C12C3C4C1C1C4(C(=O)C45C6C7C4C4C5C6C74C)C3C12C)C(C)(C)C (stereo unspecified) | 56.5 µM (inactive) | 39.8 µM (inactive) |  | 31.2 µM (inactive) | 37.8 µM (inactive) | 34.6 µM (inactive) | 78.3 µM (inactive) | 49 µM (inactive) | 53.6 µM (inactive)
16 | CCc1cccc(C)c1N1C(=O)C(=O)C(c2nc3ccccc3o2)C(=O)C1=O | > 100 µM (inactive) |  | > 100 µM (inactive) | > 100 µM (inactive) | > 100 µM (inactive) |  | > 100 µM (inactive) | > 100 µM (inactive) | > 100 µM (inactive)
17 | CN(C)CC1CCCC(CN2CCCCC2)C1=O (stereo unspecified) | 2.98 µM (inactive) |  | 2.02 µM (inactive) | 19.6 µM (inactive) |  |  | 7.71 µM (inactive) |  | 22.1 µM (inactive)
18 | COC1C(O)=C2C(=O)O/C(C)=C/C=C/C=C/C=C\CC(c3ccccc3)NC(=O)\C=C/C=C\C=C\C=C\[C@@]2(C)[C@@H]1O (stereo partly specified) | < 0.01 µM (active) | 0.0249 µM (active) |  | < 0.01 µM (active) |  |  |  | 0.0213 µM (active) | 
19 | COC(=O)C1CC2C=CC=CC(=O)C2(C)C1 (stereo unspecified) | 15.6 µM (inactive) | 40.4 µM (inactive) |  | > 100 µM (inactive) | 31.2 µM (inactive) |  | 30.7 µM (inactive) |  | 
20 | C[Si](C)(C)CN1C(=O)c2ccccc2C1(O)c1ccccc1 (stereo unspecified) | > 100 µM (inactive) | 41.6 µM (inactive) | > 100 µM (inactive) | > 100 µM (inactive) | 93.1 µM (inactive) | 88.9 µM (inactive) | > 83.9 µM (inactive) | 73.8 µM (inactive) | 56.6 µM (inactive)
21 | CC(C)NCCNC(=O)c1ccccc1Nc1c(Cl)cccc1Cl | 13 µM (inactive) | 10.9 µM (inactive) |  | 2.73 µM (inactive) | 16.9 µM (inactive) |  | 14.6 µM (inactive) | 2.92 µM (inactive) | 13.2 µM (inactive)
22 | O=C(Cn1cc(I)c(C(=O)NCC(O)CO)n1)NCC(O)CO (stereo unspecified) | > 100 µM (inactive) | > 100 µM (inactive) | > 100 µM (inactive) | > 100 µM (inactive) | > 100 µM (inactive) |  | > 100 µM (inactive) | > 100 µM (inactive) | > 100 µM (inactive)
23 | COC(=O)C(=O)C1(CCC(C)=O)c2ccccc2-c2c(C)ccc(C)c21 (stereo unspecified) | 50.1 µM (inactive) | 33.7 µM (inactive) | 56.4 µM (inactive) | 58.3 µM (inactive) | 37.8 µM (inactive) |  | 19 µM (inactive) |  | 31.6 µM (inactive)
24 | N#C/C(N)=N/c1ccccc1 | > 100 µM (inactive) | 16.9 µM (inactive) | > 100 µM (inactive) | > 100 µM (inactive) | > 100 µM (inactive) | > 100 µM (inactive) |  |  | > 100 µM (inactive)
25 | CC1(C)O[C@@H](CC/C=C/CO)[C@H](CC/C=C/CO)O1 | > 100 µM (inactive) | > 100 µM (inactive) | > 100 µM (inactive) | > 100 µM (inactive) | > 100 µM (inactive) |  | > 100 µM (inactive) | > 100 µM (inactive) | > 100 µM (inactive)
26 | CCOC(=O)C(=O)/C=C(\C)Nc1c(NC2OCC(OC(C)=O)C(OC(C)=O)C2OC(C)=O)nc(SC)[nH]c1=O (stereo unspecified) | > 100 µM (inactive) | > 100 µM (inactive) | > 100 µM (inactive) | > 100 µM (inactive) | > 100 µM (inactive) |  |  | > 100 µM (inactive) | > 100 µM (inactive)
